The subject of assay [1] is harmful plants such as Avena fatua, Echinochloa crus galli, Lolium multiflorum, Setaria viridis, Veronica persica, Viola tricolor and Alopecurus myosuroides. Description: Post-emergence herbicidal effect (greenhouse pot test, visual scoring). The note with it: post-emergence method, application rate of 0.32 kg or less of active substance per hectare, scored visually after about 3 weeks. It counts as in vivo. On the procedure:
2. Post-emergence Herbicidal Effect and Crop Plant Compatibility
Seeds of monocotyledonous and dicotyledonous weeds and crop plants are placed in sandy loam soil in wood-fiber pots, covered with soil, and cultivated in a greenhouse under good growth conditions. 2 to 3 weeks after sowing, the test plants are treated at the one-leaf stage. The compounds (I) according to the invention, formulated as wettable powders (WP), are then sprayed onto the green parts of the plants as an aqueous suspension or emulsion at a water application rate of 600 I/ha (converted), with addition of 0.2% wetting agent. The test plants are allowed to stand in a greenhouse for about 3 weeks under optimum growth conditions, and the effect of the preparations is then scored visually by comparison with untreated controls (herbicidal activity in percent (%): 100% activity=the plants have died, 0% activity=like control plants).

Assay [2] deals with harmful plants such as Alopecurus myosuroides, Echinochloa crus galli, Setaria viridis and Veronica persica. Kind of assay: Pre-emergence herbicidal effect (greenhouse pot test, visual scoring). The note with it: pre-emergence method, application rate of 0.32 kg of active substance per hectare, scored visually after about 3 weeks. It counts as in vivo. An excerpt: 1. Pre-emergence Herbicidal Effect and Crop Plant Compatibility
Seeds of monocotyledonous or dicotyledonous weeds or crop plants are placed in sandy loam soil in wood-fiber pots and covered with soil. The compounds (I) according to the invention, formulated in the form of wettable powders (WP), are then applied to the surface of the soil cover in the form of an aqueous suspension or emulsion at a water application rate of 600 I/ha (converted), with addition of 0.2% wetting agent.
Following the treatment, the pots are placed in the greenhouse and kept under good growth conditions for the test plants. After about 3 weeks, the activity of the preparations is scored visually in comparison to untreated controls (herbicidal activity in percent (%): 100% activity=the plants have died, 0% activity=like control plants).

For the compound `Cc1nn(-c2cncnc2)c(-c2ccc(Cl)cn2)c1CC(=O)OCC(F)F` [Compound 3-353], the herbicidal activity result in assay [1] and in assay [2] was “good herbicidal activity” in each case. Take `CC#CCOC(=O)Cc1c(C)nn(-c2cncnc2)c1-c1ccc(Cl)cc1` [Compound 3-161]: the herbicidal activity entry in assay [1] and in assay [2] was “good herbicidal activity” throughout. Take `COC(=O)Cc1c(C)nn(-c2cncnc2)c1-c1ccc(Cl)cn1` [Compound 2-117]: the herbicidal activity result in assay [1] and in assay [2] was “good herbicidal activity” in each case. For `COC(=O)Cc1c(C)nn(-c2cncnc2)c1-c1cc(C)cs1` [Compound 2-64], the herbicidal activity entry in assay [1] and in assay [2] was “good herbicidal activity” throughout. In the case of `COC(=O)Cc1c(C)nn(-c2cncnc2)c1-c1ccc([N+](=O)[O-])cc1` [Compound 2-243], the herbicidal activity entry in assay [1] and in assay [2] was “good herbicidal activity” in each case. For `CCOC(=O)Cc1c(C)nn(-c2cncnc2)c1-c1ccc(Cl)cc1` [Compound 3-4], the herbicidal activity entry in assay [1] and in assay [2] was “good herbicidal activity” each time.

On to `COC(=O)Cc1c(C)nn(-c2cncnc2)c1-c1ccc(Cl)s1` [Compound 2-65], for which the herbicidal activity result in assay [1] and in assay [2] was “good herbicidal activity” throughout. With `Cc1nn(-c2cncnc2)c(-c2ccc(Cl)cc2)c1CC(=O)OCC1CC1` [Compound 3-121], the herbicidal activity result in assay [1] and in assay [2] was “good herbicidal activity” each time. In the case of `COC(=O)Cc1c(C)nn(-c2cncnc2)c1-c1cc(C)cc(C)c1` [Compound 2-47], the herbicidal activity result in assay [1] and in assay [2] was “good herbicidal activity” in each case. `CC#CCOC(=O)Cc1c(C)nn(-c2cncnc2)c1-c1ccc(Br)cn1` [Compound 3-176]: the herbicidal activity entry in assay [1] and in assay [2] was “good herbicidal activity” throughout. For the compound `Cc1nn(-c2cncnc2)c(-c2ccc(Cl)cn2)c1CC(=O)OCC1CC1` [Compound 3-135], the herbicidal activity entry in assay [1] and in assay [2] was “good herbicidal activity” in each case. Regarding `C#CCOC(=O)Cc1c(C)nn(-c2cncnc2)c1-c1ccc(Cl)cn1` [Compound 3-112], the herbicidal activity result in assay [1] and in assay [2] was “good herbicidal activity” throughout.

Regarding `Cc1nn(-c2cncnc2)c(-c2ccc(Br)cn2)c1CC(=O)OCC1CC1` [Compound 3-136], in assay [1], the herbicidal activity result is “good herbicidal activity”.

Consider `CCOC(=O)Cc1c(C)nn(-c2cncnc2)c1-c1cc(C)ccn1` [Compound 3-36], for which the herbicidal activity result in assay [2] is listed as “good herbicidal activity”. Take `Cc1nn(-c2cncnc2)c(-c2ccc(Br)cn2)c1CC(=O)O` [Compound 1-119]: the herbicidal activity result in assay [1] and in assay [2] was “good herbicidal activity” in each case. As to `COC(=O)Cc1c(C)nn(-c2cncnc2)c1-c1ccc(C)cc1` [Compound 2-16], the herbicidal activity entry in assay [1] and in assay [2] was “good herbicidal activity” each time. For `COC(=O)Cc1c(C)nn(-c2cncnc2)c1-c1ccc(F)cc1` [Compound 2-132], the herbicidal activity result in assay [1] and in assay [2] was “good herbicidal activity” in each case. Take `COC(=O)Cc1c(C)nn(-c2cncnc2)c1-c1ncccn1` [Compound 2-224]: the herbicidal activity entry in assay [1] and in assay [2] was “good herbicidal activity” in each case.

As to `CCOC(=O)Cc1c(C)nn(-c2cncnc2)c1-c1ccc(Cl)cn1` [Compound 3-25], the herbicidal activity entry in assay [1] and in assay [2] was “good herbicidal activity” in each case. With `COC(=O)Cc1c(C)nn(-c2cncnc2)c1-c1cc(OC)ccn1` [Compound 2-155], the herbicidal activity entry in assay [1] and in assay [2] was “good herbicidal activity” in each case. With `COC(=O)Cc1c(C)nn(-c2cncnc2)c1-c1ccc(C)cn1` [Compound 2-124], the herbicidal activity result in assay [1] and in assay [2] was “good herbicidal activity” throughout.

`COC(=O)Cc1c(C)nn(-c2cncnc2)c1-c1ccc(Br)cc1` [Compound 2-240]: the herbicidal activity entry in assay [1] and in assay [2] was “good herbicidal activity” each time. On to `COC(=O)Cc1c(C)nn(-c2cncnc2)c1-c1ccc(Cl)c(C)c1` [Compound 2-135], for which the herbicidal activity result in assay [1] and in assay [2] was “good herbicidal activity” each time. As for `COC(=O)Cc1c(C)nn(-c2cncnc2)c1-c1ccccc1` [Compound 2-2], the herbicidal activity entry in assay [1] and in assay [2] was “good herbicidal activity” each time. For the compound `COC(=O)Cc1c(C)nn(-c2cncnc2)c1-c1ccccn1` [Compound 2-116, Methyl[3-methyl-5-(pyridin-2-yl)-1-(pyrimidin-5-yl)-1H-pyrazol-4-yl]acetate], the herbicidal activity entry in assay [1] and in assay [2] was “good herbicidal activity” in each case.

For `Cc1nn(-c2cncnc2)c(-c2cc3ccccc3cn2)c1CC(=O)O` [Compound 1-236], the herbicidal activity result in assay [1] and in assay [2] was “good herbicidal activity” throughout. Consider `CCOC(=O)Cc1c(C)nn(-c2cncnc2)c1-c1ccc(Br)cn1` [Compound 3-26], for which the herbicidal activity result in assay [1] and in assay [2] was “good herbicidal activity” each time. Regarding `C=CCc1ccc(-c2c(CC(=O)OC)c(C)nn2-c2cncnc2)nc1` [Compound 2-249], the herbicidal activity result in assay [1] and in assay [2] was “good herbicidal activity” in each case. Take `COC(=O)Cc1c(C)nn(-c2cncnc2)c1-c1cc2ccccc2cn1` [Compound 2-241]: the herbicidal activity entry in assay [1] and in assay [2] was “good herbicidal activity” each time. `COC(=O)Cc1c(C)nn(-c2cncnc2)c1-c1cnc(C)cn1` [Compound 2-215]: the herbicidal activity result in assay [1] and in assay [2] was “good herbicidal activity” each time.

Regarding `COC(=O)Cc1c(C)nn(-c2cncnc2)c1-c1cc(C)ccn1` [Compound 2-148], the herbicidal activity result in assay [1] and in assay [2] was “good herbicidal activity” each time.

With `COc1ccnc(-c2c(CC(=O)O)c(C)nn2-c2cncnc2)c1` [Compound 1-154], the herbicidal activity entry in assay [1] and in assay [2] was “good herbicidal activity” in each case. For the compound `COC(=O)Cc1c(C)nn(-c2cncnc2)c1-c1ccc(Cl)cc1` [Compound 2-28], the herbicidal activity entry in assay [1] and in assay [2] was “good herbicidal activity” each time. Turning to `Cc1nn(-c2cncnc2)c(-c2ccc(Cl)cc2)c1CC(=O)O` [Compound 1-28], the herbicidal activity entry in assay [1] and in assay [2] was “good herbicidal activity” throughout. On to `COC(=O)Cc1c(C)nn(-c2cncnc2)c1-c1nc2ccccc2s1` [Compound 2-217], for which the herbicidal activity result in assay [1] and in assay [2] was “good herbicidal activity” throughout.

Take `Cc1cc(C)nc(-c2c(CC(=O)O)c(C)nn2-c2cncnc2)c1` [Compound 1-210]: the herbicidal activity entry in assay [1] and in assay [2] was “good herbicidal activity” in each case.

In the case of `Cc1nn(-c2cncnc2)c(-c2ccc(Cl)cn2)c1CC(=O)O` [Compound 1-116], the herbicidal activity result in assay [1] and in assay [2] was “good herbicidal activity” throughout.

On to `COC(=O)Cc1c(C)nn(-c2cncnc2)c1-c1ccc(Br)cn1` [Compound 2-120], for which the herbicidal activity entry in assay [1] and in assay [2] was “good herbicidal activity” in each case. Consider `Cc1cnc(-c2c(CC(=O)O)c(C)nn2-c2cncnc2)cn1` [Compound 1-214], for which the herbicidal activity entry in assay [1] and in assay [2] was “good herbicidal activity” each time.

For the origin of these results see US8298994B2, “Substituted 1-(diazinyl)pyrazol-4-ylacetic acids, processes for their preparation and their use as herbicides and plant growth regulators” (Bayer Cropscience AG, priority 2008, dated 2012).
